Patent publication US9527859B2, “Amidopyridine derivative and use thereof” (Mitsubishi Tanabe Pharma Corporation, priority 2012, dated 2016)

How the values were obtained:
[1] = tested on: type II collagen-induced arthritis in DBA/1J mice; test: Effect on type II collagen-induced arthritis in DBA/1J mice; format: in vivo, mouse; conditions: oral, once a day for three weeks from booster immunization; significant inhibitory effect on arthritis
Protocol: Effect on Type II Collagen-Induced Arthritis in DBA/1J Mice
An emulsion was prepared by mixing 200 μg of bovine type II collagen (purchased from collagen Gijyutsu Kenshuukai) with Freund's complete adjuvant (Sigma-Aldrich) containing killed Mycobacterium tuberculosis H37Ra, and arthritis was induced by immunization through subcutaneous administration of the emulsion to the tail of 6 to 7 week-old male DBA/1J mouse (Charles River Japan, Inc.), followed by booster immunization three weeks after the first immunization by administration of the same amounts of the emulsion prepared in a similar way. Test compound was suspended or dissolved in 0.5% carboxymethylcellulose (Sigma-Aldrich) and repeatedly administered orally once a day at a dose of 1 to 10 mg/kg body weight using an oral sonde for three weeks from the day of booster immunization. In this model, the symptom of arthritis of the limbs was each evaluated according to the following evaluation criteria of 0 to 4 scores: […], No change; 1, edema in only one joint; 2, edema in two or more joints, or mild edema of the entire limb; 3, severe edema of the entire limb; 4, severe edema of the entire limb and ankylosis and immovability of joint. The score of arthritis of each mouse was expressed as the total of the scores of the limbs (Maximum: 16 points). On the next day of the final administration, soft X-ray photograph of the limbs was taken with soft X-ray equipment (Omic), and the level of joint destruction was evaluated by observation under a microscope. In each finger of the limbs the score of joint destruction in each mouse was judged in the total of scores for each finger of limbs (Maximum: 20) as 0 when no joint destruction was found, and as 1 when one or more destruction was found. The arthritis score and joint destruction score were expressed as the average value and standard error for each group (n=6 to 9). Only a vehicle was administered in a control group, and statistical analysis was performed by Dunnett's multiple comparison test, in which the case was judged as significant when the p value was less than 0.05.

[2] = target: T1, hERG current in hERG-expressed HEK 293 cells (Homo sapiens, UniProt Q12809); test: Effects on hERG current (whole-cell clamp); format: cell-based; conditions: 1 μM of test compound, tail peak current
T1 construct: host or cells: HEK 293 cells, G418-selected
Protocol: Dimethylsulfoxide was used as a vehicle, and hERG-expressed HEK 293 cells (Cytomyx) were used as test cells. Test cells were once cultured and subdivided and were stored under frozen condition in liquid nitrogen. In the study, thawed and subcultured cells having less than 30 of the passage number were used. Test cells were cultured in a carbon dioxide gas incubator BNP-110M (Tabai Espec Corp.) at 37±1° C. and 5.0±0.5% of carbon dioxide concentration. The component of culture medium was basically MEM (Minimum Essential Medium) supplemented with 10 vol % fetal bovine serum (non-activated), 1 mmol/L sodium pyruvate, 0.1 mmol/L non-essential amino acid and 100 U/mL penicillin/100 μg/mL streptomycin. To select gene-expressing cells, 400 μg/mL G418 Sulphate (Invitrogen) was added to the culture medium. […] A manufacturer of the culture solution is Invitrogen Corporation.
As to seeding of cells for measurement, subcultured cells which became confluent were treated with 0.25% trypsin-solution containing 1 mmol/L EDTA (Invitrogen) to remove therefrom, and seeded on dishes overlaid with sterilized collagen-coated cover glass (Iwaki, AGC Techno Glass Co., LTD). The medium was exchanged appropriately, including the day of measurement.
A perfusion method was carried out for an application route. Test cells were perfused (perfusion speed: approximately 4 mL/min) with an external solution containing specified concentrations of test compounds (component of external solution: 137 mmol/L of sodium chloride, 4 mmol/L of potassium chloride, 10 mmol/L of HEPES, 1.8 mmol/L of calcium chloride, 1 mmol/L of magnesium chloride and 10 mmol/L of glucose; adjusted to pH 7.4±0.1 with sodium hydroxide solution). When no effects were observed until 4 minutes after switching to a test compound solution, the next different concentration of the test compound was perfused. When effects were observed, the perfusion was continued until the maximum response was observed. The maximum perfusion time for lower concentrations of test compound was set for 10 minutes even when effects were observed. The data were obtained from one experiment or more and the cells which were gently incubated in a carbon dioxide incubator after seeding and attached to cover glasses were used for the measurement.
A whole-cell clamping method was applied to the measurement. Test cells were perfused (perfusion speed: approximately 4 mL/min) with an external solution (component of external solution: 137 mmol/L of sodium chloride, 4 mmol/L of potassium chloride, 10 mmol/L of HEPES, 1.8 mmol/L of calcium chloride, 1 mmol/L of magnesium chloride and 10 mmol/L of glucose; adjusted to pH 7.4±0.1 with sodium hydroxide solution). A glass electrode with a resistance of 2 to 6 MΩ, filled with an internal solution (component: 130 mmol/L of potassium chloride, 1 mmol/L of magnesium chloride, 5 mmol/L of EGTA, 10 mmol/L of HEPES and 5 mmol/L of ATP, adjusted to pH 7.2±0.1 with potassium hydroxide solution) was used. After rupturing cell membrane with glass electrode, the cell membrane voltage was held at −80 mV by using patch clamp amplifier (EPC8, HEKA) via a patch clamp software (pCLAMP9 [Axon CNS], Molecular Devices). As illustrated below, a test pulse of +20 mV for 1.5 seconds and −40 mV for 1.5 seconds was given once every 15 seconds. One minute or more after obtaining 500 pA or higher peak value of the stable tail currents, test compounds were applied. Test cells and the cell-seeded cover glass were changed every treatment. Temperature of the fluid in a perfusion fluid tank was 24±2° C.
The obtained current was recorded on a computer by using a patch clamp software via a patch clamp amplifier. An evaluation item was a tail peak current.
A tail peak current was analyzed using analyzing software (Clampfit 9 [Axon CNS], MolecularDevices). […]

T1 sequence (Q12809 whole entry): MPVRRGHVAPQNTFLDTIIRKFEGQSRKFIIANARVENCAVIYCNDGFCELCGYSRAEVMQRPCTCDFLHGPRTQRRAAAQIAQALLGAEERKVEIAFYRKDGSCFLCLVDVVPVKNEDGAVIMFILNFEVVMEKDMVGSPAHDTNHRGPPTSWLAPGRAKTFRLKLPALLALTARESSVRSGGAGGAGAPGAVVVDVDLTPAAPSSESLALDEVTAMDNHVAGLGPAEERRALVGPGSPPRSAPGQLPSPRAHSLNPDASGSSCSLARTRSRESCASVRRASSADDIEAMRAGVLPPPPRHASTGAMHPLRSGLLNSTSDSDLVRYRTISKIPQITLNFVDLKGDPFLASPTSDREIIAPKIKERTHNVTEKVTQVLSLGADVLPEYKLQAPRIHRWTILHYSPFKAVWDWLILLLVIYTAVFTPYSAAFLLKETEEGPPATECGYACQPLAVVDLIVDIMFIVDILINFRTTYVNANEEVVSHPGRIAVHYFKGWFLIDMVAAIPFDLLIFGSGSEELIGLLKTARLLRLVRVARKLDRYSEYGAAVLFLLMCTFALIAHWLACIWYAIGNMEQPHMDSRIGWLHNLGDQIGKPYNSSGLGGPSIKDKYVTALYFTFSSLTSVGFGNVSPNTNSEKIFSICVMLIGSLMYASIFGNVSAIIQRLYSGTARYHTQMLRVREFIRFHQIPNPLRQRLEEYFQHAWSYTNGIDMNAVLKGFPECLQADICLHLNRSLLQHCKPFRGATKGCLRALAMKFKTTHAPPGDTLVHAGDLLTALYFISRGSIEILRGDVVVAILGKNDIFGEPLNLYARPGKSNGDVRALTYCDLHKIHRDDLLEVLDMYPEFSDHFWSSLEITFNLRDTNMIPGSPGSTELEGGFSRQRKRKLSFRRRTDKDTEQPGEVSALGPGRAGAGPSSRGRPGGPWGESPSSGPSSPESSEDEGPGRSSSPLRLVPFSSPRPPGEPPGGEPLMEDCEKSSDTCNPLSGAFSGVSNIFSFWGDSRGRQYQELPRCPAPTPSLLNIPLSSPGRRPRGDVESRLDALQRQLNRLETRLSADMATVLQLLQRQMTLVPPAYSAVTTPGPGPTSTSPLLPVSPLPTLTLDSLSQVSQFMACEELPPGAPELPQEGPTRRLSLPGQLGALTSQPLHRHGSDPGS

SMILES	Effective Dose (showing arthritis-inhibiting activity) [1] [mg/kg]	Inhibition ratio (%) [2] [%]
Cc1c(C(=O)Nc2cnc(N3CCC(O)CC3)c(C3CC3)c2)cnn1-c1ccc(Cl)cc1 [Example 39, 1-(4-chlorophenyl)-N-[5-cyclopropyl-6-(4-hydroxypiperidin-1-yl)pyridin-3-yl]-5-methyl-1H-pyrazole-4-carboxamide]	3	8.1
Cc1cc(NC(=O)c2cnn(-c3ccc(Cl)cc3)c2C)cnc1N1CCC(O)CC1 [Example 43, 1-(4-chlorophenyl)-N-[6-(4-hydroxypiperidin-1-yl)-5-methylpyridin-3-yl]-5-methyl-1H-pyrazole-4-carboxamide]		9.4
Cc1c(C(=O)Nc2cnc(N3CCC(O)CC3)c(C#N)c2)cnn1-c1ccc(Cl)cc1 [Example 44, 1-(4-chlorophenyl)-N-[5-cyano-6-(4-hydroxypiperidin-1-yl)pyridin-3-yl]-5-methyl-1H-pyrazole-4-carboxamide]	3	2
Cc1c(C(=O)Nc2cnc(N3CCC(O)CC3)c(C#N)c2)cnn1-c1ccc(C(F)(F)F)cc1 [Example 45, N-[5-cyano-6-(4-hydroxypiperidin-1-yl)pyridin-3-yl]-5-methyl-1-[4-(trifluoromethyl)phenyl]-1H-pyrazole-4-carboxamide]	10	4.2
Cc1cc(NC(=O)c2cnn(-c3ccc(C(F)(F)F)cc3)c2C)cnc1N1CCC(C(C)(C)F)CC1 [Example 47, N-{6-[4-(1-fluoro-1-methylethyl)piperidin-1-yl]-5-methylpyridin-3-yl}-5-methyl-1-[4-(trifluoromethyl)phenyl]-1H-pyrazole-4-carboxamide]		32.7
Cc1cc(NC(=O)c2cnn(-c3ccc(C(F)(F)F)cn3)c2C)cnc1N1CCC(C(C)(C)F)CC1 [Example 49, N-{6-[4-(1-fluoro-1-methylethyl)piperidin-1-yl]-5-methylpyridin-3-yl}-5-methyl-1-[5-(trifluoromethyl)pyridin-2-yl]-1H-pyrazole-4-carboxamide]		40.5
